Experimental data from the NIST ThermoML archive (doi:10.1016/j.jct.2013.02.023).

Assay: molar heat capacity at constant pressure
Conditions: 101.33 kPa, relaxation calorimetry - Quantum Design PPMS

O=P([O-])([O-])OP(=O)([O-])[O-].O=P([O-])([O-])OP(=O)([O-])[O-].O=P([O-])([O-])OP(=O)([O-])[O-].[Fe+3].[Fe+3].[Fe+3].[Fe+3] [iron(III) diphosphate]
molar heat capacity at constant pressure [J/K/mol]
Conditions	Crystal 1	Crystal 2
45.43 K	–	122.94
45.64 K	–	124.36
45.84 K	–	125.76
46.02 K	–	126.95
46.22 K	–	128.47
46.44 K	–	130.17
46.64 K	–	131.93
46.84 K	–	133.84
47.05 K	–	135.68
47.24 K	–	137.48
47.38 K	–	138.74
47.44 K	–	139.11
47.58 K	–	139.19
47.6 K	139.19	139.19
47.65 K	138.86	–
47.77 K	136.97	–
47.84 K	134.84	–
47.97 K	130.03	–
48.05 K	126.52	–
48.16 K	121.47	–
48.26 K	116.89	–
48.36 K	112.95	–
48.42 K	110.73	–
48.55 K	107.38	–
48.66 K	105.62	–
48.76 K	103.95	–
48.97 K	102.08	–
49.16 K	101.07	–
49.25 K	100.78	–
49.37 K	100.37	–
49.56 K	99.82	–
49.74 K	99.5	–
49.76 K	99.49	–
49.97 K	99.12	–
50 K	99.09	–
50.16 K	98.85	–
50.24 K	98.89	–
50.37 K	98.71	–
50.75 K	98.49	–
51.26 K	98.47	–
51.78 K	98.62	–
52.26 K	99.14	–
52.77 K	99.39	–
53.27 K	99.87	–
53.79 K	100.51	–
53.8 K	100.65	–
54.3 K	101.12	–
54.8 K	101.89	–
55 K	102.2	–
55.3 K	102.66	–
55.82 K	103.45	–
56.32 K	104.29	–
56.83 K	105.21	–
57.33 K	106.12	–
57.82 K	106.98	–
58.35 K	107.99	–
58.86 K	109.04	–
59.33 K	110.07	–
59.86 K	111.09	–
60 K	111.36	–
60.37 K	112.09	–
61.22 K	114	–
62.42 K	116.32	–
63.41 K	118.45	–
64.42 K	120.61	–
65 K	121.89	–
65.42 K	122.92	–
66.42 K	124.93	–
67.44 K	127.27	–
68.45 K	129.47	–
69.47 K	131.89	–
70 K	133.03	–
70.48 K	134.15	–
71.49 K	136.51	–
72.5 K	138.68	–
73.5 K	141.06	–
73.58 K	141.14	–
74.51 K	143.36	–
75 K	144.64	–
75.53 K	145.73	–
76.55 K	148.3	–
77.56 K	150.74	–
78.57 K	153.39	–
79.58 K	155.6	–
80 K	156.55	–
80.59 K	158.26	–
81.7 K	160.54	–
85 K	168.61	–
90 K	180.67	–
90.71 K	182.62	–
95 K	193.23	–
100 K	205.34	–
100.7 K	205.22	–
110 K	227.92	–
110.85 K	227.84	–
120 K	248.76	–
120.85 K	248.93	–
130 K	268.26	–
130.93 K	269.49	–
140 K	286.79	–
141.05 K	288.92	–
150 K	304.56	–
151.1 K	307	–
160 K	321.72	–
161.21 K	324.93	–
170 K	338.34	–
171.22 K	342.32	–
180 K	354.45	–
181.32 K	357.51	–
190 K	370.05	–
191.45 K	374.2	–
200 K	385.13	–
201.57 K	387.79	–
210 K	399.67	–
211.7 K	401.38	–
220 K	413.65	–
221.82 K	416.43	–
230 K	427.07	–
231.97 K	429	–
240 K	439.91	–
242.05 K	440.09	–
250 K	452.18	–
252.07 K	452.65	–
260 K	463.87	–
262.14 K	465.23	–
270 K	475	–
272.29 K	475.97	–
273.15 K	478.39	–
280 K	485.58	–
282.37 K	488.57	–
290 K	495.63	–
292.36 K	498.4	–
298.15 K	503.44	–
300 K	505.16	–
302.55 K	510.46	–
